For this experiment, the target named is hcGAS (Homo sapiens, UniProt Q8N884). The experiment in a line: hcGAS LCMS assay (direct measurement of cGAMP production). As to conditions: 0.5 nM hcGAS, 100 μM ATP, 100 μM GTP, 25 nM dsDNA, 4 h incubation. The class given is biochemical. The method in brief: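 Direct LC/MS readout of cGAMP formed: 4-h enzyme–substrate incubation with compound, stopped by acetonitrile/water quench carrying isotope-labelled cGAMP (0.15 mM) as standard. Potency reported as IC50 ranges.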
Chain of hcGAS (Q8N884 whole entry): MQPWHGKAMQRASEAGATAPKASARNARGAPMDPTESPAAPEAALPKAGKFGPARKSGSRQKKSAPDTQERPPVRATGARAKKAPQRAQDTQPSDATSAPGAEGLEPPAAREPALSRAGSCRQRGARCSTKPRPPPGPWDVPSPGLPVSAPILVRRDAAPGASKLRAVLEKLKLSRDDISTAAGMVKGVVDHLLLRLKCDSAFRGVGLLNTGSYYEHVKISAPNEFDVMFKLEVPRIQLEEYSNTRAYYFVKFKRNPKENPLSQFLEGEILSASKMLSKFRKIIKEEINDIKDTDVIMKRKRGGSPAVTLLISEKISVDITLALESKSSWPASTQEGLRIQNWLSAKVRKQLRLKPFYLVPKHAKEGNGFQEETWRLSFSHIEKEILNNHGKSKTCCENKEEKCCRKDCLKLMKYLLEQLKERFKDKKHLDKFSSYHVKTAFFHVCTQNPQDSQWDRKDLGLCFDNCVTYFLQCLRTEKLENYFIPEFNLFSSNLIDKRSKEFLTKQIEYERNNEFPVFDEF
Take `COc1c(N[C@@H]2CCCC[C@@H]2OC)cc(C(=O)Nc2nnc(-n3nccc3C)s2)oc1=O` [Compound 52, 3-methoxy-4-(((1R,2S)-2-methoxycyclohexyl)amino)-N-(5-(5-methyl-1H-pyrazol-1-yl)-1,3,4-thiadiazol-2-yl)-2-oxo-2H-pyran-6-carboxamide]: the concentration for half-maximal inhibition (IC50) was in the range of 5 to 20 nM. On to `COc1c(N[C@@H]2CCC[C@@H]2OCC(F)F)cc(C(=O)Nc2nnc(-n3nccc3C)s2)oc1=O` [Compound 171, 4-(((1R, 2S)-2-(2,2-difluoroethoxy)cyclopentyl)amino)-3-methoxy-N-(5-(5-methyl-1H-pyrazol-1-yl)-1,3,4-thiadiazol-2-yl)-2-oxo-2H-pyran-6-carboxamide], for which the IC50 is 5 to 20 nM. For the compound `COC[C@@H](C)Nc1cc(C(=O)Nc2nnc(-c3c(Cl)ccn3C)s2)oc(=O)c1OC` [Compound 128, (R)-N-(5-(3-chloro-1-methyl-1H-pyrrol-2-yl)-1,3,4-thiadiazol-2-yl)-3-methoxy-4-((1-methoxypropan-2-yl)amino)-2-oxo-2H-pyran-6-carboxamide], the IC50 is < 5 nM. In the case of `COc1c(NCCO[C@@H]2CCOC2)cc(C(=O)Nc2nnc(-n3nccc3C)s2)oc1=O` [Compound 169, 5-methoxy-N-[5-(5-methylpyrazol-1-yl)-1,3,4-thiadiazol-2-yl]-6-oxo-4-({2-[(3R)-oxolan-3-yloxy]ethyl}amino)pyran-2-carboxamide], the IC50 is ≥ 200 nM. In the case of `COc1c(N[C@@H]2CC[C@@H]2OC)cc(C(=O)Nc2nnc(-n3nccc3C)s2)oc1=O` (single isomer, unassigned) [122*] it was 5 to 20 nM; in that of `COc1c(N[C@H]2CC[C@H]2OCC(F)F)cc(C(=O)Nc2nnc(-n3nccc3C)s2)oc1=O` (single isomer, unassigned) [172*], 5 to 20 nM; in that of `COc1c(N[C@@H]2CC[C@@H]2OC)cc(C(=O)Nc2nnc(-c3c(Cl)ccn3C)s2)oc1=O` (single isomer, unassigned) [Compound 132*], 5 to 20 nM.

Regarding `COc1c(N[C@H]2CCC[C@H]2O)cc(C(=O)Nc2nnc(-c3c(Cl)ccn3C)s2)oc1=O` [Compound 83, N-(5-(3-chloro-1-methyl-1H-pyrrol-2-yl)-1,3,4-thiadiazol-2-yl)-4-(((1S,2R)-2-hydroxycyclopentyl)amino)-3-methoxy-2-oxo-2H-pyran-6-carboxamide], the IC50 is < 5 nM. On to `COc1c(N[C@H]2CCC[C@H]2OC(F)F)cc(C(=O)Nc2nnc(-n3nccc3C)s2)oc1=O` [Compound 212, 4-(((1S,2R)-2-(difluoromethoxy)cyclopentyl)amino)-3-methoxy-N-(5-(5-methyl-1H-pyrazol-1-yl)-1,3,4-thiadiazol-2-yl)-2-oxo-2H-pyran-6-carboxamide], for which the IC50 was in the range of 5 to 20 nM.

In the case of `COCCNc1cc(C(=O)Nc2nnc(-n3nccc3N)s2)oc(=O)c1OC` [Compound 205, N-(5-(5-amino-1H-pyrazol-1-yl)-1,3,4-thiadiazol-2-yl)-3-methoxy-4-((2-methoxyethyl)amino)-2-oxo-2H-pyran-6-carboxamide], the IC50 is 5 to 20 nM. `COc1c(N2CCCS2(=O)=O)cc(C(=O)Nc2nnc(-n3nccc3C)s2)oc1=O` [Compound 99, 4-(1,1-dioxidoisothiazolidin-2-yl)-3-methoxy-N-(5-(5-methyl-1H-pyrazol-1-yl)-1,3,4-thiadiazol-2-yl)-2-oxo-2H-pyran-6-carboxamide] registered an IC50 of 20 to 60 nM. With `COC[C@H]1CCC[C@H]1Nc1cc(C(=O)Nc2nnc(-n3nccc3C)s2)oc(=O)c1OC` (single isomer, unassigned) [Compound 80*], the concentration for half-maximal inhibition (IC50) was ≥ 200 nM.

As for `COC[C@@]1(Nc2cc(C(=O)Nc3nnc(-n4nccc4C)s3)oc(=O)c2OC)CCOC1` (single isomer, unassigned) [Compound 100*], the half-inhibitory concentration (IC50) was 5 to 20 nM. Regarding `COc1c(N[C@H]2CCC[C@H]2OC)cc(C(=O)Nc2nnc(-c3c(Cl)ccn3C)s2)oc1=O` (single isomer, unassigned) [47*], the IC50 was < 5 nM. Next, `COCC(COC)Nc1cc(C(=O)Nc2nnc(-n3nccc3CO)s2)oc(=O)c1OC` [Compound 143, 4-((1,3-dimethoxypropan-2-yl)amino)-N-(5-(5-(hydroxymethyl)-1H-pyrazol-1-yl)-1,3,4-thiadiazol-2-yl)-3-methoxy-2-oxo-2H-pyran-6-carboxamide]: 20 to 60 nM. Take `COc1c(N[C@H]2CC[C@H]2O)cc(C(=O)Nc2nnc(-c3c(Cl)ccn3C)s2)oc1=O` (single isomer, unassigned) [Compound 53]: the IC50 is < 5 nM. `COCC1(Nc2cc(C(=O)Nc3nnc(-n4nccc4C)s3)oc(=O)c2OC)CC1` [Compound 97, 3-methoxy-4-((1-(methoxymethyl)cyclopropyl)amino)-N-(5-(5-methyl-1H-pyrazol-1-yl)-1,3,4-thiadiazol-2-yl)-2-oxo-2H-pyran-6-carboxamide] gave a half-inhibitory concentration (IC50) of 5 to 20 nM. Next, `COc1c(NC2COC(C)(C)OC2)cc(C(=O)Nc2nnc(-n3nccc3C)s2)oc1=O` [Compound 195, 4-((2,2-dimethyl-1,3-dioxan-5-yl)amino)-3-methoxy-N-(5-(5-methyl-1H-pyrazol-1-yl)-1,3,4-thiadiazol-2-yl)-2-oxo-2H-pyran-6-carboxamide]: 5 to 20 nM; `CC[C@H](COC)Nc1cc(C(=O)Nc2nnc(-n3nccc3C)s2)oc(=O)c1OC` (single isomer, unassigned) [191*]: 20 to 60 nM.

In the case of `COC[C@H](C1CC1)N1CCOc2c1cc(C(=O)Nc1nnc(-n3nccc3C)s1)oc2=O` [Compound 226, (S)-1-(1-cyclopropyl-2-methoxyethyl)-N-(5-(5-methyl-1H-pyrazol-1-yl)-1,3,4-thiadiazol-2-yl)-5-oxo-1,2,3,5-tetrahydropyrano[3,4-b][1,4]oxazine-7-carboxamide], the IC50 is < 5 nM. The compound `COc1c(N[C@H]2CCCC[C@H]2OC)cc(C(=O)Nc2nnc(-n3nccc3C)s2)oc1=O` [Compound 27, 3-methoxy-4-(((1S,2R)-2-methoxycyclohexyl)amino)-N-(5-(5-methyl-1H-pyrazol-1-yl)-1,3,4-thiadiazol-2-yl)-2-oxo-2H-pyran-6-carboxamide] showed a 50% inhibitory concentration (IC50) of 5 to 20 nM. As for `COc1c(N[C@H]2CC[C@H]2OC)cc(C(=O)Nc2nnc(-c3c(Cl)ccn3C)s2)oc1=O` (single isomer, unassigned) [Compound 133*], the IC50 is 5 to 20 nM. As to `COc1c(N[C@@H]2CCCC[C@H]2OC)cc(C(=O)Nc2nnc(-n3nccc3C)s2)oc1=O` [Compound 202, 3-methoxy-4-(((1R,2R)-2-methoxycyclohexyl)amino)-N-(5-(5-methyl-1H-pyrazol-1-yl)-1,3,4-thiadiazol-2-yl)-2-oxo-2H-pyran-6-carboxamide], the IC50 was 5 to 20 nM. Next, `COc1c(NC23COC(C2)C3)cc(C(=O)Nc2nnc(-n3nccc3C)s2)oc1=O` [Compound 51, 4-((2-oxabicyclo[2.1.1]hexan-4-yl)amino)-3-methoxy-N-(5-(5-methyl-1H-pyrazol-1-yl)-1,3,4-thiadiazol-2-yl)-2-oxo-2H-pyran-6-carboxamide]: 5 to 20 nM. Regarding `COc1c(N2C[C@@H](OC)CC2=O)cc(C(=O)Nc2nnc(-n3nccc3C)s2)oc1=O` [Compound 155, (S)-3-methoxy-4-(4-methoxy-2-oxopyrrolidin-1-yl)-N-(5-(5-methyl-1H-pyrazol-1-yl)-1,3,4-thiadiazol-2-yl)-2-oxo-2H-pyran-6-carboxamide], the concentration for half-maximal inhibition (IC50) fell in the range of 5 to 20 nM. Regarding `COC[C@H](Nc1cc(C(=O)Nc2nnc(-c3c(Cl)ccn3C)s2)oc(=O)c1OC)c1ccccc1` [Compound 213, (R)-N-(5-(3-chloro-1-methyl-1H-pyrrol-2-yl)-1,3,4-thiadiazol-2-yl)-3-methoxy-4-((2-methoxy-1-phenylethyl)amino)-2-oxo-2H-pyran-6-carboxamide], the half-maximal inhibitory concentration (IC50) is < 5 nM.

On to `COc1c(N2CCC[C@@H]2CC#N)cc(C(=O)Nc2nnc(-n3nccc3C)s2)oc1=O` [Compound 174, (R)-4-(2-(cyanomethyl)pyrrolidin-1-yl)-3-methoxy-N-(5-(5-methyl-1H-pyrazol-1-yl)-1,3,4-thiadiazol-2-yl)-2-oxo-2H-pyran-6-carboxamide], for which the IC50 is 20 to 60 nM. In the case of `COc1c(N[C@@H]2CCC[C@H]2OC)cc(C(=O)Nc2nnc(-n3nccc3C)s2)oc1=O` (single isomer, unassigned) [3*] it was < 5 nM; in that of `COC[C@@H](Nc1cc(C(=O)Nc2nnc(-n3nccc3C)s2)oc(=O)c1OC)c1ccccc1OC` (single isomer, unassigned) [199*], < 5 nM. Take `COC[C@H]1CCN1c1cc(C(=O)Nc2nnc(-n3nccc3C)s2)oc(=O)c1OC` [Compound 194, (R)-3-methoxy-4-(2-(methoxymethyl)azetidin-1-yl)-N-(5-(5-methyl-1H-pyrazol-1-yl)-1,3,4-thiadiazol-2-yl)-2-oxo-2H-pyran-6-carboxamide]: the IC50 lay within 5 to 20 nM. On to `Cc1ccnn1-c1nnc(NC(=O)c2cc3c(c(=O)o2)OCCN3[C@H]2CCC[C@H]2C#N)s1` [Compound 224, 1-((1S,2R)-2-cyanocyclopentyl)-N-(5-(5-methyl-1H-pyrazol-1-yl)-1,3,4-thiadiazol-2-yl)-5-oxo-1,2,3,5-tetrahydropyrano[3,4-b][1,4]oxazine-7-carboxamide], for which the IC50 was < 5 nM. In the case of `COC[C@H](Nc1cc(C(=O)Nc2nnc(-n3nccc3C)s2)oc(=O)c1OC)c1ccccc1OC` (single isomer, unassigned) [198*], the IC50 fell in the range of 20 to 60 nM.

Consider `COc1c(N[C@H]2CCC[C@H]2OCC(F)F)cc(C(=O)Nc2nnc(-n3nccc3C)s2)oc1=O` [Compound 206, 4-(((1S,2R)-2-(2,2-difluoroethoxy)cyclopentyl)amino)-3-methoxy-N-(5-(5-methyl-1H-pyrazol-1-yl)-1,3,4-thiadiazol-2-yl)-2-oxo-2H-pyran-6-carboxamide], for which the IC50 lay within 5 to 20 nM.

Turning to `COCCOc1c(N[C@@H](COC)c2ccccc2)cc(C(=O)Nc2nnc(-n3nccc3C)s2)oc1=O` [Compound 200, (R)-4-((2-Methoxy-1-phenylethyl)amino)-3-(2-methoxyethoxy)-N-(5-(5-methyl-1H-pyrazol-1-yl)-1,3,4-thiadiazol-2-yl)-2-oxo-2H-pyran-6-carboxamide], the IC50 was < 5 nM.

Usually IC50 stands for the point on the concentration scale where inhibition reaches its midpoint. High values mean a need for much substance, low ones inhibition by little substance.

These data come from patent US20240270740A1, “INHIBITORS OF CYCLIC GMP-AMP SYNTHASE AND USES THEREOF” (Ventus Therapeutics U.S., Inc., priority 2022, published 2024).
